Entries after “also recorded” stand apart in the source; their conditions may differ.

The subject of data set [1] is Lrat−/− and Rpe65−/− knockout mice. Conditions: cited from earlier work.
Data set [2] has as its system C57BL/6 female mice. The experiment in a line: Single flash ERG analyses after long-term treatment. It counts as in vivo, mouse. The note with it: 14 months of age, monthly gavage ~80 mg/kg (9-cis-R-Ac: N2 and N3), vs control C2; 80 mg/kg. The source says:
To evaluate the effects of rod- and cone-mediated light responses after long-term 9-cis-R-Ac treatments, mice were examined by non-invasive ERG methods. The first set of analyses was done at 4 and 10 months of age. Under scotopic conditions, the amplitudes of a-waves decreased with age, especially at high flash intensities (C1 versus C0 group, FIG. 4A, left top panel), whereas the changes in b-waves were less evident (FIG. 4A, right top panel).
The second set of analyses was done at 14 months of age.
(§1) Six groups of mice were studied (FIG. 1B).
(§2) Two weeks after the last gavage with either, 9-cis-R-Ac, all-trans-R-Ac or vehicle, groups of 48 hr dark-adapted mice were analyzed for recovery of dark adaptation after light exposure, purified rhodopsin/opsin and retinoids in the eye and retinal morphology (FIG. 1C; Methods). Mice were exposed to light of intensity 500 cd·m^−2 that bleached ˜90% of rhodopsin, anesthetized and monitored by ERG for one hr to evaluate recovery of dark adaptation. Rhodopsin was purified and rhodopsin/opsin ratios was determined. Retinoid analyses were performed on dissected eyes removed at 0, 10, 30, and 60 min after exposure to the same amount of light. Mice used to evaluate retinal morphology were not exposed to photobleaching prior to analysis.
(§3) ERGs of anesthetized mice were recorded as previously reported.

Data set [3] deals with C57BL/6 female mice. Kind of data set: Recovery of ERG response (dark adaptation) after bleach, long-term treatment. It counts as in vivo, mouse. Conditions: 14 months of age, treated (9-cis-R-Ac: N2 and N3) vs C2; 500 cd·m^−2 for 3 min, 60 min dark adaptation. As for the experimental part: Recovery of the ERG response (dark adaptation) following bleach was measured by monitoring the amplitude of a-waves after retinal exposure to intense constant illumination (500 cd·m^−2, ˜90% bleached rhodopsin) for 3 min. […] Retinoid kinetics in the eyes of each group were quantitatively evaluated during 60 min of dark adaptation after 3 min of bleaching at four subsequent time points of dark adaptation (0, 10, 30, and 60 min). […] Neither 9-cis-retinal nor 9-cis-retinyl esters were found in eyes from untreated groups (data not shown).
as §1, §2, §3

Data set [4] deals with retina. Kind of data set: Retinal morphology (light and electron microscopy). It counts as in vivo, mouse. The note with it: 10 and 14 months of age. The protocol:
The thickness of each major layer in the retina was also similar between control and treated groups.
For light microscopy, mouse eyecups were fixed with 2.5% glutaraldehyde and 1.6% paraformaldehyde in 0.08 M 1,4-piperazinediethanesulfonate buffer (PIPES) (pH 7.4) containing 2% sucrose for ˜1 hr at room temperature followed by 23 hr at 4° C. Eyecups then were washed with 0.13 M sodium phosphate buffer (pH 7.3) and dehydrated through a CH3OH series and embedded in JB4 glycol metacrylate. Sections (6 μm) were stained by immersion in 5% Richardson's stain for 1.5-2 min at room temperature and destained in 0.13 M sodium phosphate (pH 7.3) until the retinal layers were visible by light microscopy (about 8-15 min). For transmission electron microscopy, mouse eyecups were analyzed as described previously (Maeda, A., et al. J Blot Chem 280, 18822-18832 (2005); Maeda, T., Lem, J., Palczewski, K. & Haeseleer, F. Investigative ophthalmology & visual science 46, 4320-4327 (2005)).

Regarding `CC1=C(/C=C/C(C)=C\C=C\C(C)=C\C=O)C(C)(C)CCC1` [9-cis-retinal], the “retinal morphology and rod function (single cell recordings, ERG)” value in data set [1] (mouse, in vivo, po) was “preserved retinal morphology and recovery of normal rod function”. Regarding `CC1=C(/C=C/C(C)=C/C=C/C(C)=C/C=O)C(C)(C)CCC1` [11-cis-retinal], the vision entry in data set [1] (intraperitoneal injection, Rpe65−/− mice) was “improves vision”.

Take `CC(=O)OC/C=C(C)/C=C/C=C(C)/C=C/C1=C(C)CCCC1(C)C` [all-trans-R-Ac, reference compound]: the “a- and b-wave amplitudes, scotopic and photopic single flash ERG” value in data set [2] was “no significant difference; also recorded: no effect”. For the same compound, the “recovery of ERG a-wave response (dark adaptation) after bleach” value in data set [3] was “no significant difference”. Further, the “retinal abnormalities by light microscopy” value in data set [4] is listed as “no major abnormalities”.

The values are drawn from patent publication US9855239B2, “Methods for the treatment and prevention of age-related retinal dysfunction” (University of Washington, priority 2008, dated 2018).
